Data on one compound can be found in PMC5908784, “Extracellular loops 2 and 3 of the calcitonin receptor selectively modify agonist binding and efficacy” (Biochemical Pharmacology, 2018).

Holding throughout (assay): Heterologous whole cell competition binding
Details in all cases: heterologous competition of 125I-sCT(8-32), whole cells, mean ± S.E.M., SEM

The target in one experiment is T1, hCTR E294A (Homo sapiens, UniProt P30988, E294A).
T1 construct: c-Myc (N); expressed in transfected cells
T1 sequence (P30988 25-474 E294A): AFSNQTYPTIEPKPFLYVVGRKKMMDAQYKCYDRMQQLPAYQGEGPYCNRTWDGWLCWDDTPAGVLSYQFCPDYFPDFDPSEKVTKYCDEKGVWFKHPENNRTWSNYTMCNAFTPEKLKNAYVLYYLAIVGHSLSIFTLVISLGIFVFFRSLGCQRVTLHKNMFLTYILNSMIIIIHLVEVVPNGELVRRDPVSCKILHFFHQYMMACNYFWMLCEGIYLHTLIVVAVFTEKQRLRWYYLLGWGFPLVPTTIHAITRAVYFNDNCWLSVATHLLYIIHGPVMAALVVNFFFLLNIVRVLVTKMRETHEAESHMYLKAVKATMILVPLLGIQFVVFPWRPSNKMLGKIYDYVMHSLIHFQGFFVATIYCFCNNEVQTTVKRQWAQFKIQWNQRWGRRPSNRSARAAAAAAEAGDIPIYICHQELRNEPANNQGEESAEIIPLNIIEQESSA
Here is the method:
(§1) Following overnight incubation non-bound ligand was removed and radioactivity was determined using a gamma counter.
(§2) Data were corrected for radioligand occupancy using the Cheng-Prusoff equation in Prism; as such data are reported as pKi. Emax and EC50 were estimated from concentration-response curves using with a 3-parameter logistic equation in Prism (v7). These values are a composite of functional affinity, efficacy and stimulus response coupling. […] Significance was accepted at P < 0.05.

The target of the next experiment is T2, hCTR Y299A (Homo sapiens, UniProt P30988, Y299A).
T2 construct: c-Myc (N); expressed in transfected cells
T2 sequence (P30988 25-474 Y299A): T1 sequence (P30988 25-474 E294A) with A270E, Y275A
Here is the method:
as §1, §2

A further experiment concerns the target T3, hCTR S292A (Homo sapiens, UniProt P30988, S292A).
T3 construct: expressed in transfected cells
T3 sequence (P30988 25-474 S292A): T1 sequence (P30988 25-474 E294A) with S268A, A270E
The protocol:
as §1, §2

For the next experiment, the target named is T4, hCTR L298A (Homo sapiens, UniProt P30988, L298A).
T4 construct: c-Myc (N); expressed in transfected cells
T4 sequence (P30988 25-474 L298A): T1 sequence (P30988 25-474 E294A) with A270E, L274A
The protocol: as §1, §2

A further experiment concerns the target T5, hCTR L291A (Homo sapiens, UniProt P30988, L291A).
T5 construct: expressed in transfected cells
T5 sequence (P30988 25-474 L291A): T1 sequence (P30988 25-474 E294A) with L267A, A270E
The protocol: as §1, §2

SMILES strings stand for the structures. Substitutions are numbered along the chain they refer to. pKi: −log10 of the molar value. Where a SMILES comes first, the peptide text is derived from it. Bridges are numbered along the chain shown (N, C = ends).

With `CSCC[C@H](NC(=O)CNC(=O)[C@H](CO)NC(=O)[C@H](Cc1ccccc1)NC(=O)[C@H](CCCNC(=N)N)NC(=O)[C@H](Cc1c[nH]cn1)NC(=O)[C@H](Cc1ccccc1)NC(=O)[C@H](CC(N)=O)NC(=O)[C@H](CC(N)=O)NC(=O)[C@H](CC(C)C)NC(=O)[C@H](CC(N)=O)NC(=O)[C@H](CCCNC(=N)N)NC(=O)[C@H](Cc1c[nH]c2ccccc12)NC(=O)[C@H](Cc1ccc(O)cc1)NC(=O)[C@H](C)NC(=O)[C@H](CO)NC(=O)[C@H](CC(C)C)NC(=O)[C@@H](NC(=O)[C@@H]1CSSC[C@H](N)C(=O)N[C@@H](CO)C(=O)N[C@@H](CC(N)=O)C(=O)N[C@@H](CC(C)C)C(=O)N[C@@H](CO)C(=O)N[C@@H]([C@@H](C)O)C(=O)N1)C(C)C)C(=O)NCC(=O)N[C@@H](Cc1ccccc1)C(=O)NCC(=O)N1CCC[C@H]1C(=O)N[C@@H](CCC(=O)O)C(=O)N[C@H](C(=O)N1CCC[C@H]1C(N)=O)[C@@H](C)O` [pCT] (H-CSNLSTCVLSAYWRNLNNFHRFSGMGFGPETP-NH2; disulfide 1-7), the negative-log Ki (pKi) – broadly, the negative decadic logarithm of the Ki, by convention in mol/L – is 7.93 on hCTR E294A; 7.33 on hCTR Y299A; 8.54 on hCTR S292A; 7.69 at hCTR L298A; 7.17 at hCTR L291A.
